# In patent publication US9150519B2, “6-amino-pyrimidine-4-carboxamide derivatives and related compounds which bind to the sphingosine 1-phosphate (S1P) receptor for the treatment of multiple sclerosis” (MERCK SERONO SA, priority 2007, dated 2015):
# What was measured:
# S1P3 = S1P3 (Homo sapiens (Human), UniProt Q99500); experiment: 35S-GTPγS binding assay, S1P3 membranes; type: biochemical; conditions: membranes from CHO cells expressing S1P3; read-out: S1P3 GTPyS EC50
# Protocol: (§1) Membranes were prepared from CHO cells expressing S1P1 or S1P3 for use in ligand and […] binding studies. Cells were suspended in 50 mM TRIS, pH 7.4, 2 mM EDTA, 250 mM Sucrose (buffer A) and 1× Complete protease inhibitor cocktail (Roche), and disrupted at 4° C. by nitrogen decompression using a cell disruption bomb (Parr Instrument). Following centrifugation at 1000 RPM for 10 min at 4° C., the supernatant was suspended in buffer A and centrifuged again at 19000 RPM for 60 min at 4° C. The pellet was then suspended in 10 mM HEPES, pH 7.4, 1 mM EDTA, 250 mM Sucrose (Buffer B), and 1× Complete EDTA-free protease inhibitor cocktail and homogenized using a potter. Membranes were flash frozen in liquid nitrogen and stored at −80° C. [33P]sphingosine 1-phosphate (3000 Ci/mmol; American Radiolabeled Chemicals, Inc.) was added to test compounds in DMSO. Membranes and WGA SPA beads (GE Healthcare) were added to give a final volume of 100 μl in 96-well plates with assay concentrations of 25 μM or 10 μM [33P]sphingosine 1-phosphate (respectively for S1P1 or S1P3), 50 mM HEPES, pH 7.5, 5 mM MgCl2, 100 mM NaCl, 0.4% fatty acid-free BSA, 1-5 μg/well of proteins and 100 μg/well of WGA SPA beads. Binding was performed for 60 min at room temperature on a shaker and bound radioactivity was measured on a PerkinElmer 1450 MicroBeta counter. Specific binding was calculated by subtracting remaining radioactivity in the presence of 1000-fold excess of unlabeled S1P. Binding data were analyzed using the GraphPad Prism program.
# Measurements of ^35S-GTPγS Binding: Membranes (1 to 10 μg protein) prepared as described above, were incubated in 96-well Scintiplates (PerkinElmer) with test compounds diluted in DMSO, in 180 μl of 20 mM HEPES, pH 7.4, 10 mM MgCl2, 2 μg/well Saponin, 0.2% fatty acid free BSA (Assay buffer), 140 mM NaCl and 1.7 μM GDP. The assay was initiated with the addition of 20 μl of 1.5 nM [35S]-GTPγS (1100 Ci/mmol; GE Healthcare) in assay buffer. After 60 min incubation at 30° C. on a shaker, plates were centrifuged for 10 min at 2000 RPM. Supernatant was discarded and membrane bound radioactivity was measured on a PerkinElmer 1450 MicroBeta counter. Triplicate samples were averaged and expressed as % response relative to SIP activation in absence of compound (n=2).
# S1P1 = S1P1 (Homo sapiens (Human), UniProt P21453); experiment: 35S-GTPγS binding assay, S1P1 membranes; type: biochemical; conditions: membranes from CHO cells expressing S1P1; read-out: S1P1 GTPyS EC50
# S1P1, sequence (P21453 whole entry, species assumed): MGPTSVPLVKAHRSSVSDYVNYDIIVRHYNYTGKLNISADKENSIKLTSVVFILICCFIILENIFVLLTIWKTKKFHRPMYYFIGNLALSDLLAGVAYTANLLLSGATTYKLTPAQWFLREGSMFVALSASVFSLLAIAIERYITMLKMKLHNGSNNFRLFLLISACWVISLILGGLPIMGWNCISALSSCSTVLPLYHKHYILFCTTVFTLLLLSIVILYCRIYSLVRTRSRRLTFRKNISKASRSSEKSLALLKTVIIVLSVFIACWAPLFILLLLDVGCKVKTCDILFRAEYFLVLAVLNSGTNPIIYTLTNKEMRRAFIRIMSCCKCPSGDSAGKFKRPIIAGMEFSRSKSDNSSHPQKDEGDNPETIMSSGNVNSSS
# Protocol: as §1, with “Membranes and WGA SPA beads (GE Healthcare) were added to give a final volume of 100 μl in 96-well plates with assay concentrations of 25 μM or 10 μM [33P]sphingosine 1-phosphate (respectively for S1P1 or S1P3), 50 mM HEPES, pH 7.5, 5 mM MgCl2, 100 mM NaCl, 0.4% fatty acid-free BSA, 1-5 μg/well of proteins and 100 μg/well of WGA SPA beads.” left out
# The assay was initiated with the addition of 20 μl of 1.5 nM [35S]-GTPγS (1100 Ci/mmol; GE Healthcare) in assay buffer. After 60 min incubation at 30° C. on a shaker, plates were centrifuged for 10 min at 2000 RPM. Supernatant was discarded and membrane bound radioactivity was measured on a PerkinElmer 1450 MicroBeta counter. Triplicate samples were averaged and expressed as % response relative to SIP activation in absence of compound (n=2).
# S1P3, sequence (Q99500 whole entry, species assumed): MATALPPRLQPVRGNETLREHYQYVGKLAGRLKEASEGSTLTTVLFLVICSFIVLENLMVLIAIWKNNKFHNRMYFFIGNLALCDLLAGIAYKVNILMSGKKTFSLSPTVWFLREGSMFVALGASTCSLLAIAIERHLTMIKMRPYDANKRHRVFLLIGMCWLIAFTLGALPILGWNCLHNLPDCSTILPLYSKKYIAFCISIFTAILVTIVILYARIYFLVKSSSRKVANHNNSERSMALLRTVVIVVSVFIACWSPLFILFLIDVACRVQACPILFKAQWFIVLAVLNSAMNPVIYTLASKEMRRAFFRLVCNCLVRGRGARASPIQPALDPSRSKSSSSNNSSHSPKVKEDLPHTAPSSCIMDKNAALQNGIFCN
Compound,EC50 (S1P3) [µM],EC50 (S1P1) [nM]
Cc1cc(O)ccc1NC(=O)c1cc(NC2CCCCC2)ncn1 [Example 1-1],> 30,–
O=C(Nc1ccc(O)c2ccccc12)c1cc(NC2CCCCC2)ncn1 [Example 1-5],> 30,–
O=C(Nc1ccc(O)cc1F)c1cc(NC2CCCCC2)ncn1 [Example 1-7],> 30,–
O=C(Nc1ccc(O)cc1Cl)c1cc(NC2CCCCC2)ncn1 [Example 1-8],> 30,–
CS(=O)(=O)Nc1ccc(NC(=O)c2cc(NC3CCCCC3)ncn2)cc1 [Example 1-13],> 30,–
O=C(Nc1ccc(O)cc1C(F)(F)F)c1cc(NC2CCCCC2)ncn1 [Example 1-15],> 30,380
O=C(Nc1ccnc2ccccc12)c1cc(NC2CCCCC2)ncn1 [Example 1-16],5.23,1070
Cc1cc(S(N)(=O)=O)ccc1NC(=O)c1cc(NC2CCCCC2)ncn1 [Example 1-18],> 30,440
CN(c1cc(C(=O)Nc2ccc(O)cc2)ncn1)C1CCCCC1 [Example 1-19],> 30,–
CCCN(CCC)c1cc(C(=O)Nc2ccc(O)cc2)ncn1 [Example 1-22],2.32,370
CCN(c1cc(C(=O)Nc2ccc(O)cc2C)ncn1)C1CCCCC1 [Example 1-25],> 30,400
O=C(Nc1ccc(O)cc1)c1cc(OC2CCCCC2)ncn1 [Example 1-26],> 30,240
O=C(Nc1ccc2[nH]ncc2c1)c1cc(NC2CCCCC2)ncn1 [Example 1-28],> 30,–
Cc1cc(S(N)(=O)=O)ccc1NC(=O)c1cc(N(C)C2CCCCC2)ncn1 [Example 1-29],> 30,65
Cc1cc(O)ccc1NC(=O)c1cc(N(CC2CC2)C2CCCCC2)ncn1 [Example 1-33],100,24.6
Cc1cc(O)ccc1NC(=O)c1cc(OC2CCCCC2)ncn1 [Example 1-34],> 20,132
CN(c1cc(C(=O)Nc2ccc3[nH]ncc3c2)ncn1)C1CCCCC1 [Example 1-35],> 20,418
CCC(C)Oc1cc(C(=O)Nc2ccc(O)cc2C)ncn1 (stereo not shown) [Example 1-36],> 20,2920
Cc1cc(S(N)(=O)=O)ccc1NC(=O)c1cc(N(CC2CC2)C2CCCCC2)ncn1 [Example 1-38],47.5,2

Compound,EC50 (S1P3) [µM],EC50 (S1P1) [nM]
Cc1cc2[nH]ncc2cc1NC(=O)c1cc(N(C)C2CCCCC2)ncn1 [Example 1-39],2.33,211
CN(c1cc(C(=O)Nc2ccc(S(=O)(=O)NCC(O)CO)cc2)ncn1)C1CCCCC1 (stereo not shown) [Example 1-40],> 20,1520
CN(c1cc(C(=O)Nc2ccc3c(c2)CC(=O)N3)ncn1)C1CCCCC1 [Example 1-41],32,1780
O=C(Nc1ccc2[nH]ncc2c1)c1cc(N(CC2CC2)C2CCCCC2)ncn1 [Example 1-44],> 20,9
O=C(Nc1ccc(CCO)cc1)c1cc(NC2CCCCC2)ncn1 [Example 1-52],> 30,–
O=C(Nc1ccc(O)cc1)c1cc(NC2CCCCC2)ncn1 [Example 1-53],> 30,–
CCCN(CC1CC1)c1cc(C(=O)Nc2ccc(S(N)(=O)=O)cc2C)ncn1 [Example 1-56],> 20,–
Cc1cc(S(=O)(=O)NCCC(=O)O)ccc1NC(=O)c1cc(N(CC2CC2)C2CCCCC2)ncn1 [Example 1-62],0.062,–
Cc1cc(S(=O)(=O)NCCCC(=O)O)ccc1NC(=O)c1cc(N(CC2CC2)C2CCCCC2)ncn1 [Example 1-63],1.31,–
CC(C)CN(c1cc(C(=O)Nc2ccc3[nH]ncc3c2)ncn1)C1CCCC1 [Example 1-69],0.666,–
O=C(Nc1ccc(CN2CC(C(=O)O)C2)cc1)c1cc(N(CC2CC2)C2CCCCC2)ncn1 [Example 1-84],0.236,–
CCCN(CC1CC1)c1cc(C(=O)Nc2ccc(CO)cc2C)ncn1 [Example 1-85],> 20,–
CCCN(CC1CC1)c1cc(C(=O)Nc2ccc(S(=O)(=O)NCCC(=O)O)cc2C)ncn1 [Example 1-99],5.65,–
CCCN(CC1CC1)c1cc(C(=O)Nc2ccc(CNCC(=O)O)cc2C)ncn1 [Example 1-100],> 20,–
CCCN(CC1CC1)c1cc(C(=O)Nc2cccc3[nH]ccc23)ncn1 [Example 1-113],> 20,–
CCOC(=O)CCS(=O)(=O)Cc1ccc(NC(=O)c2cc(N(CC3CC3)C3CCCCC3)ncn2)cc1 [Example 1-130],–,537
CCOC(=O)CCCS(=O)(=O)c1ccc(NC(=O)c2cc(N(CC3CC3)C3CCCCC3)ncn2)cc1 [Example 1-131],–,1680
O=C(O)CCS(=O)(=O)Cc1ccc(NC(=O)c2cc(N(CC3CC3)C3CCCCC3)ncn2)cc1 [Example 1-133],–,226
CCCN(CC1CC1)c1cc(C(=O)Nc2cccc3[nH]ncc23)ncn1 [Example 1-134],–,594

Compound,EC50 (S1P3) [µM],EC50 (S1P1) [nM]
CCCN(CC1CC1)c1cc(C(=O)Nc2ccc(CS(=O)(=O)CCC(=O)O)cc2)ncn1 [Example 1-135],–,3120
Cn1cnnc1-c1ccc(NC(=O)c2cc(N(CC3CC3)C3CCCCC3)ncn2)cc1 [Example 1-136],–,2040
O=C(Nc1ccc(Cn2cncn2)cc1)c1cc(N(CC2CC2)C2CCCCC2)ncn1 [Example 1-137],–,346
CCCN(CC1CC1)c1cc(C(=O)Nc2ccc(CN3CCC(C(=O)O)CC3)cc2C)ncn1 [Example 1-138],–,443
CCCN(CC1CC1)c1cc(C(=O)Nc2ccc(CN3CCC[C@@H]3COC)cc2C)ncn1 [Example 1-139],–,2480
CCCN(CC1CC1)c1cc(C(=O)Nc2ccc(CN3CCC(O)CC3)cc2C)ncn1 [Example 1-140],–,1410
CCCN(CC1CC1)c1cc(C(=O)Nc2ccc(CN3CCCC(CO)C3)cc2C)ncn1 (stereo not shown) [Example 1-141],–,2290
CCCN(CC1CC1)c1cc(C(=O)Nc2ccc(CN3CCC(O)C3)cc2C)ncn1 (stereo not shown) [Example 1-142],–,465
CCCN(CC1CC1)c1cc(C(=O)Nc2cccc(-n3cncn3)c2)ncn1 [Example 1-143],–,79
CCCN(CC1CC1)c1cc(C(=O)Nc2cccc(-n3ccnc3C)c2)ncn1 [Example 1-144],–,1540
CCCN(CC1CC1)c1cc(C(=O)Nc2ccc(Cn3cncn3)cc2)ncn1 [Example 1-145],–,55
CCCN(CC1CC1)c1cc(C(=O)Nc2ccc(-n3cncn3)cc2)ncn1 [Example 1-146],–,279
CCCN(CC1CC1)c1cc(C(=O)Nc2cccc(-n3ccnc3)c2)ncn1 [Example 1-147],–,38
CCCN(CC1CC1)c1cc(C(=O)Nc2cccc(Cn3cccn3)c2)ncn1 [Example 1-148],–,1050
CCCN(CC1CC1)c1cc(C(=O)Nc2ccc(CC3COC(=O)N3)cc2)ncn1 (stereo not shown) [Example 1-150],–,268
CCCN(CC1CC1)c1cc(C(=O)Nc2ccc(N3CCOCC3)c(F)c2)ncn1 [Example 1-151],–,604
CCCN(CC1CC1)c1cc(C(=O)Nc2cccc(Cn3cncn3)c2)ncn1 [Example 1-152],–,1120
CCCN(CC1CC1)c1cc(C(=O)Nc2cccc(Cn3ccnc3)c2)ncn1 [Example 1-153],–,481
CCCN(CC1CC1)c1cc(C(=O)Nc2ccc(CN3CCC3)cc2C)ncn1 [Example 1-154],–,807
